Ki and EC50 data for 18 molecules are collected here from patent publication US10035800B2 (AbbVie Inc., priority 2013, dated 2018).

For test [1], the target named is T1, BRD4 (BDI_K57-E168) (Homo sapiens, UniProt O60885).
T1 construct: BD1: amino acids K57-E168; made in house
Kind of test: TR-FRET bromodomain binding assay, first bromodomain of BRD4. Particulars: TR-FRET assay protocol G (compound 0.92 μM-15 pM); 100 nM probe. The gist of the method: (§1)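 Ki values derive from IC50s using probe Kd and concentration, with IC50s fitted to normalized TR-FRET ratios (Ex 340/Em 495, 520). Compounds competed against an Alexa647-labelled BET-inhibitor (100 nM BDI, 30 nM BDII) for 8 nM His-tagged bromodomain bound by Eu-anti-His antibody, 1 h, room temperature, pH 6.0.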
In general terms: In TR-FRET formats the signal depends on donor and acceptor labels being close together.

For test [2], the target named is T2, BRD4 (BDII_E352-M457) (Homo sapiens, UniProt O60885).
T2 construct: protocol; made in house
In words: TR-FRET bromodomain binding assay, second bromodomain of BRD4. Particulars: TR-FRET assay protocol G (compound 0.92 μM-15 pM); 30 nM probe. Put shortly:
as §1

Test [3] relates to breast cancer cell line MX-1. In words: MX-1 cell line proliferation assay. Particulars: MX-1 cells, 3-day proliferation assay, Cell Titer Glo; read-out: Cellular proliferation: EC50. The class given is cell-based. Put shortly: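 EC50 comes from sigmoidal fits of Cell Titer Glo luminescence relative to DMSO controls, with assay MSR 2.1. Ten-point 3-fold dilutions (top 3 or 1 μM final) were added to MX-1 breast cancer cells after overnight adhesion. Cells were at 5000/well and proliferation ran 3 days.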
Background: In ATP-based viability assays light output follows the ATP content of the culture.

Broadly, the Ki is the dissociation constant of the complex between target and ligand, obtained from inhibition or displacement. `CCNC(=O)N1Cc2c[nH]c3c(=O)n(C)cc(c23)-c2cc(CS(C)(=O)=O)ccc21` [Example 45, N-ethyl-10-methyl-7-((methylsulfonyl)methyl)-11-oxo-10,11-dihydro-1H-1,4,10-triazadibenzo[cd,f]azulene-4(3H)-carboxamide]: the figures for the inhibition constant (Ki) in test [1] and in test [2] were 3.92 nM and 3.75 nM, respectively. The EC50 in test [3] was 141 nM.

On to `Cn1cc2c3c(c[nH]c3c1=O)CN(C(=O)Nc1ccc(F)cc1)c1ccc(CS(C)(=O)=O)cc1-2` [Example 46], for which the Ki in test [1] came to 13.7 nM; in test [2] it was 7.48 nM. Also, the EC50 in test [3] stood at 152 nM.

In the case of `CCCCN1Cc2c[nH]c3c(=O)n(C)cc(c23)-c2cc(F)cc(F)c21` [Example 47, 4-butyl-5,7-difluoro-10-methyl-3,4-dihydro-1H-1,4,10-triazadibenzo[cd,f]azulen-11(10H)-one], the inhibition constant Ki in test [1] came out at 1.37 nM; in test [2], 1.27 nM. Moreover, in test [3], the EC50 amounted to 8.33 nM.

Turning to `CCCN1Cc2c[nH]c3c(=O)n(C)cc(c23)-c2cc(F)cc(F)c21` [Example 48, 5,7-difluoro-10-methyl-4-propyl-3,4-dihydro-1H-1,4,10-triazadibenzo[cd,f]azulen-11(10H)-one], the Ki in test [1] was found to be 1.12 nM; in test [2] it was 0.855 nM. The EC50 in test [3] stood at 4.41 nM.

In the case of `Cn1cc2c3c(c[nH]c3c1=O)CN(CC1CC1)c1c(F)cc(F)cc1-2` [Example 49, 4-(cyclopropylmethyl)-5,7-difluoro-10-methyl-3,4-dihydro-1H-1,4,10-triazadibenzo[cd,f]azulen-11(10H)-one], the Ki in test [1] was found to be 1.99 nM; in test [2] it was 2.21 nM. Further, the EC50 in test [3] was 8.63 nM.

On to `COC(=O)CCCN1Cc2c[nH]c3c(=O)n(C)cc(c23)-c2cc(F)cc(F)c21` [Example 50, methyl 4-(5,7-difluoro-10-methyl-11-oxo-10,11-dihydro-1H-1,4,10-triazadibenzo[cd,f]azulen-4(3H)-yl)butanoate], for which the Ki in test [1] came to 3.44 nM; in test [2], 5.51 nM. Moreover, the EC50 in test [3] stood at 42.2 nM.

With `Cn1cc2c3c(c[nH]c3c1=O)CN(CCCc1ccccc1)c1c(F)cc(F)cc1-2` [Example 51, 5,7-difluoro-10-methyl-4-(3-phenylpropyl)-3,4-dihydro-1H-1,4,10-triazadibenzo[cd,f]azulen-11(10H)-one], the Ki in test [1] was 4.43 nM; in test [2], 13.2 nM. In test [3], the EC50 was 174 nM.

Turning to `Cc1ccccc1NC(=O)N1Cc2c[nH]c3c(=O)n(C)cc(c23)-c2cc(CS(C)(=O)=O)ccc21` [Example 52, 10-methyl-7-((methylsulfonyl)methyl)-11-oxo-N-(o-tolyl)-10,11-dihydro-1H-1,4,10-triazadibenzo[cd,f]azulene-4(3H)-carboxamide], the Ki in test [1] was determined as 17.4 nM; in test [2] it was 4.99 nM. The EC50 in test [3] was 247 nM.

Consider `Cn1cc2c3c(c[nH]c3c1=O)CN(CCc1ccccc1)c1c(F)cc(F)cc1-2` [Example 55, 5,7-difluoro-10-methyl-4-phenethyl-3,4-dihydro-1H-1,4,10-triazadibenzo[cd,f]azulen-11(10H)-one], for which the results for the Ki in test [1] and in test [2] were 8.96 nM and 15.9 nM, respectively. Also, the EC50 in test [3] worked out at 146 nM.

Turning to `Cn1cc2c3c(c[nH]c3c1=O)CN(CCc1ccc3c(c1)OCO3)c1c(F)cc(F)cc1-2` [Example 56, 4-(2-(benzo[d][1,3]dioxol-5-yl)ethyl)-5,7-difluoro-10-methyl-3,4-dihydro-1H-1,4,10-triazadibenzo[cd,f]azulen-11(10H)-one], the Ki came out at 14.4 nM in test [1] and 35.3 nM in test [2]. The EC50 in test [3] stood at 197 nM.

With `Cc1cccc(C)c1NC(=O)N1Cc2c[nH]c3c(=O)n(C)cc(c23)-c2cc(CS(C)(=O)=O)ccc21` [Example 61, N-(2,6-dimethylphenyl)-10-methyl-7-((methylsulfonyl)methyl)-11-oxo-10,11-dihydro-1H-1,4,10-triazadibenzo[cd,f]azulene-4(3H)-carboxamide], the inhibition constant (Ki) in test [1] came to 21.1 nM; in test [2], 3.74 nM. In test [3], the EC50 is over 1000 nM.

On to `COc1ccc(NC(=O)N2Cc3c[nH]c4c(=O)n(C)cc(c34)-c3cc(CS(C)(=O)=O)ccc32)cc1` [Example 62, N-(4-methoxyphenyl)-10-methyl-7-((methylsulfonyl)methyl)-11-oxo-10,11-dihydro-1H-1,4,10-triazadibenzo[cd,f]azulene-4(3H)-carboxamide], for which the inhibition constant Ki in test [1] turned out to be 7.23 nM; in test [2], 4.73 nM. Besides, the EC50 in test [3] worked out at 910 nM.

Take `CCCNC(=O)N1Cc2c[nH]c3c(=O)n(C)cc(c23)-c2cc(CS(C)(=O)=O)ccc21` [Example 64, 10-methyl-7-((methylsulfonyl)methyl)-11-oxo-N-propyl-10,11-dihydro-1H-1,4,10-triazadibenzo[cd,f]azulene-4(3H)-carboxamide]: the Ki was 2.69 nM in test [1] and 2.85 nM in test [2]. In addition, the EC50 in test [3] came out at 84.6 nM.

Consider `Cn1cc2c3c(c[nH]c3c1=O)CN(C(=O)Nc1ccc(F)cc1F)c1ccc(CS(C)(=O)=O)cc1-2` [Example 68, N-(2,4-difluorophenyl)-10-methyl-7-((methylsulfonyl)methyl)-11-oxo-10,11-dihydro-1H-1,4,10-triazadibenzo[cd,f]azulene-4(3H)-carboxamide], for which the Ki in test [1] amounted to 12.7 nM; in test [2], 4.22 nM. Further, the EC50 in test [3] was 40.1 nM.

Turning to `CC(C)c1ccc(NC(=O)N2Cc3c[nH]c4c(=O)n(C)cc(c34)-c3cc(CS(C)(=O)=O)ccc32)cc1` [Example 69, N-(4-isopropylphenyl)-10-methyl-7-((methylsulfonyl)methyl)-11-oxo-10,11-dihydro-1H-1,4,10-triazadibenzo[cd,f]azulene-4(3H)-carboxamide], the Ki was determined as 3.25 nM in test [1] and 3.24 nM in test [2]. Besides, the EC50 in test [3] was 43.1 nM.

In the case of `Cn1cc2c3c(c[nH]c3c1=O)CN(C(=O)Nc1c(F)cccc1F)c1ccc(CS(C)(=O)=O)cc1-2` [Example 70, N-(2,6-difluorophenyl)-10-methyl-7-((methylsulfonyl)methyl)-11-oxo-10,11-dihydro-1H-1,4,10-triazadibenzo[cd,f]azulene-4(3H)-carboxamide], the figures for the Ki in test [1] and in test [2] were 7.41 nM and 1.88 nM, respectively. For the same molecule, the EC50 in test [3] was 131 nM.

Take `COC(=O)CCC1c2c[nH]c3c(=O)n(C)cc(c23)-c2cc(CS(C)(=O)=O)ccc2N1c1ccc(F)cc1F` (stereo not drawn) [Example 82, methyl 3-(4-(2,4-difluorophenyl)-10-methyl-7-((methylsulfonyl)methyl)-11-oxo-3,4,10,11-tetrahydro-1H-1,4,10-triazadibenzo[cd,f]azulen-3-yl)propanoate]: the Ki in test [1] was 13.3 nM; in test [2], 1.12 nM. For the same molecule, the EC50 in test [3] is 979 nM.

For the molecule `CCOC(=O)C1c2c[nH]c3c(=O)n(C)cc(c23)-c2cc(CS(C)(=O)=O)ccc2N1c1ccc(F)cc1` [Example 84, (R)-ethyl 4-(4-fluorophenyl)-10-methyl-7-((methylsulfonyl)methyl)-11-oxo-3,4,10,11-tetrahydro-1H-1,4,10-triazadibenzo[cd,f]azulene-3-carboxylate], the Ki in test [1] was 2.24 nM; in test [2], 3.86 nM. Moreover, the EC50 in test [3] is 17.7 nM.
